Columns and labels:
ENaC = target: T1, ENaC (Homo sapiens, UniProt P37088+P51168+P51170); assay: Transepithelial voltage under thin film conditions in human bronchial epithelial cultures (microelectrode); format: cell-based; settings: rSPLUNC1 vs aprotinin addition; effects not additive
T1 construct: endogenous in cells; host or cells: primary human bronchial epithelial cultures
T1 sequence (P37088 1-669): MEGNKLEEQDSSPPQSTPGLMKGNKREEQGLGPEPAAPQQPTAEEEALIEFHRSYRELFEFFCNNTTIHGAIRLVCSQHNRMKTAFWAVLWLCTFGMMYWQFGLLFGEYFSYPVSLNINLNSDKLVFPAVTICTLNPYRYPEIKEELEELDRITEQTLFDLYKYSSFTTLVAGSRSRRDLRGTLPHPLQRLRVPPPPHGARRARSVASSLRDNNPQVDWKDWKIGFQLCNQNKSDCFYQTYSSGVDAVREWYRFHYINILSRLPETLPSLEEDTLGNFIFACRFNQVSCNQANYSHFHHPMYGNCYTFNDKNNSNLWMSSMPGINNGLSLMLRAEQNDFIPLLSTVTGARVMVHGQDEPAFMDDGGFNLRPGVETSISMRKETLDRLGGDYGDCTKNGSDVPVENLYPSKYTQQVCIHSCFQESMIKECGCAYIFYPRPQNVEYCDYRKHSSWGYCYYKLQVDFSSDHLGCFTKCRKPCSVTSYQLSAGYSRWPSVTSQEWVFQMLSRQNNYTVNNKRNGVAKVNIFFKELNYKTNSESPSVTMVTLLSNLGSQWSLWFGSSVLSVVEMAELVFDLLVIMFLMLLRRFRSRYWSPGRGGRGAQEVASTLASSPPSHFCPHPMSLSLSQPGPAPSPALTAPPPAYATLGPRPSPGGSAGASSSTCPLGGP
T1 sequence (P51168 1-640): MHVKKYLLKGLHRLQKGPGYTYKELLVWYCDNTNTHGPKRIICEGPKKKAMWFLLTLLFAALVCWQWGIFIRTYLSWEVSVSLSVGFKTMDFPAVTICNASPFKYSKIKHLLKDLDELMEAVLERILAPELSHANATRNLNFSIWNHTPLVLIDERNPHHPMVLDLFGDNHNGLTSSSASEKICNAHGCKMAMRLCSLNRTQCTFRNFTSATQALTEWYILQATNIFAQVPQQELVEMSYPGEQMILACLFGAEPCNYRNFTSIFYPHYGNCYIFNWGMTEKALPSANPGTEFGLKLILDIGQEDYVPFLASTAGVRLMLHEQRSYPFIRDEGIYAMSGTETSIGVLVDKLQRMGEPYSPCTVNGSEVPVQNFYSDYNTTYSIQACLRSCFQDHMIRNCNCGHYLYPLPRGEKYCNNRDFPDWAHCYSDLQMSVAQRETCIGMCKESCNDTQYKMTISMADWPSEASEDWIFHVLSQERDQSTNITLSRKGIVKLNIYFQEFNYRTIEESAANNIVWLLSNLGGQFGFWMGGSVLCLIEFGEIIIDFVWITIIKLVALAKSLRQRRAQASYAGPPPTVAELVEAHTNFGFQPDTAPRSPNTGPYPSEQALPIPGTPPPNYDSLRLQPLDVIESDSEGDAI
T1 sequence (P51170 1-649): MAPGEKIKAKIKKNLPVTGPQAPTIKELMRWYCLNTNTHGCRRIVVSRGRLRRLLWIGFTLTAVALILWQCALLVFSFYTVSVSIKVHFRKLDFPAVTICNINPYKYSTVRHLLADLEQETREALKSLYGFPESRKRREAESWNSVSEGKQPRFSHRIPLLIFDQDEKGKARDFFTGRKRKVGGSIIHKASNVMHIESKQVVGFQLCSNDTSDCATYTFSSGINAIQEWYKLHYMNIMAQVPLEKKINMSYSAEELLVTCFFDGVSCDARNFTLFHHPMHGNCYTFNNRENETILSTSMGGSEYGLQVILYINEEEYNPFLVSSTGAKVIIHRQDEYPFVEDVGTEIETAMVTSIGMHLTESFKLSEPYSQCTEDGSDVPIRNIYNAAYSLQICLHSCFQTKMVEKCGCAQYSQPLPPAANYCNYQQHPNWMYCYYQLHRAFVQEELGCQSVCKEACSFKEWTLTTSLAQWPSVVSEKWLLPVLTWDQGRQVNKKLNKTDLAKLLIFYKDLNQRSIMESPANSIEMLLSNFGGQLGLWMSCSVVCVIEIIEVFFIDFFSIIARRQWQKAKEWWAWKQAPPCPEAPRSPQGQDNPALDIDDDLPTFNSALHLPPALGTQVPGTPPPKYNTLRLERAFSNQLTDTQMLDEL
Description: Tissue procurement and cell culture: Cells were harvested by enzymatic digestion from human bronchial tissue as previously described under a protocol approved by the UNC School of Medicine IRB (Tarran et al., J. Gen. Physiol. 127:591 (2006)). Human excess donor lungs and excised recipient lungs were obtained at the time of lung transplantation from portions of main stem or […] bronchi and cells were harvested by enzymatic digestion. All preparations were maintained at an air-liquid interface in a modified bronchial epithelial medium and used 2-5 weeks after seeding on 12 mm T-Clear inserts (Corning Costar) coated with human placental type VI collagen (Sigma). Phosphate buffered saline (PBS) was used for washing human bronchial epithelial culture mucosal surfaces.
Microelectrode studies. A single-barreled potential difference-sensing electrode was placed in the airway surface liquid by micromanipulator and used in conjunction with a macroelectrode in the serosal solution to measure transepithelial voltage using a voltmeter (World Precision Instruments). […] Transepithelial resistance was routinely measured using the EVOM system (WPI) as previously described (Tarran et al., J. Gen. Physiol. 127:591 (2006)).

serine proteases = assay: Endogenous protease activity (BGAR-MCA cleavage) on mucosal surfaces of human bronchial epithelial cultures; format: cell-based
Protocol: (§1) For cell-free assays, reactions were carried out in 50 μl Ringer in a 96 well plate format with 100 μM BGAR-MCA. To measure endogenous protease activity in human bronchial epithelial cultures, 30 μl Ringer with 100 μM BGAR-MCA were placed directly onto the mucosal surfaces of human bronchial epithelial cultures grown on 12 mm T-clear inserts and the cultures were assayed in 12 well plates.

trypsin = assay: Cell-free fluorogenic assay of BGAR-MCA cleavage by trypsin; format: biochemical; settings: 2 U/ml aprotinin
Protocol: as §1

αENaC = target: T2, αENaC (Homo sapiens, UniProt P37088); assay: Texas red-SPLUNC1 binding assay on JME cells expressing yfp-αENaC; settings: polarized JME cells
T2 construct: expressed in transfected cells; host or cells: JME nasal epithelial cells (passaged, no endogenous ENaC), lentiviral vector pQCXIN
T2 sequence (P37088 1-669): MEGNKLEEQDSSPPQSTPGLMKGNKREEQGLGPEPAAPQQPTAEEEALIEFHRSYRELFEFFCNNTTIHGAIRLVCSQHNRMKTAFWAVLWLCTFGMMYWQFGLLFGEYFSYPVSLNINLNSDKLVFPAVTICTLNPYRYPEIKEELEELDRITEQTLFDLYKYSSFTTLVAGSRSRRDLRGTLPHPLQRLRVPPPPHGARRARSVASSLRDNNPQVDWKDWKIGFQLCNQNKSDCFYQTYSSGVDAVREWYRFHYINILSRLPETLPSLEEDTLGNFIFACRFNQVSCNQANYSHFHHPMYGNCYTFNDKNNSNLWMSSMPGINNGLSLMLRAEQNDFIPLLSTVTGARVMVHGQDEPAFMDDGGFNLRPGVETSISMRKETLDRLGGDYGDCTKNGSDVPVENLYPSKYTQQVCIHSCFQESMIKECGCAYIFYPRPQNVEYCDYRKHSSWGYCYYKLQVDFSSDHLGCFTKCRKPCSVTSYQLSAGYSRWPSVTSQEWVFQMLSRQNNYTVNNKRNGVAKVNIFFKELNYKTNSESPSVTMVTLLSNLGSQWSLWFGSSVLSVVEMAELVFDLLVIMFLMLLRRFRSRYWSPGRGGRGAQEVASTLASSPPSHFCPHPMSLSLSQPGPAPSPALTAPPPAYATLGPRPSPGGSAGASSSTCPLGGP
Protocol: JME cells were incubated with varying concentrations of Texas red-labeled SPLUNC1 for 30 min followed by a 5× wash with PBS. After this time images were acquired with a Nikon Ti-S inverted microscope and were quantified to obtain specific and non-specific binding using Image J. Data were then fitted with a Hill Plot to obtain the Kd.
JME nasal epithelial cells express functional ENaCs (Tong et al., Am. J. Physiol. Lung Cell. Mol. Physiol. 287:L928 (2004)). However, this attribute is lost after several passages. Thus, passaged JME cells that no longer expressed ENaC were stably infected with a lentivirus containing yfp-αENaC or an empty vector as a control and the presence or absence of αENaC was confirmed using an antibody that was constructed “in-house” that was directed against αENaC (FIG. 8).
Recombinant SPLUNC1 was labeled with Texas red according to the manufacturer's instructions (Pierce) and was freshly labeled on the day of each binding experiment. […] After this time yfp (514 nm excitation) and Texas red fluorescence (590 nm excitation) were imaged under a 60× water objective on a Nikon Ti-S inverted microscope equipped with an Orca CCD camera (Hamamatsu) switchable filter wheels (Ludl). Background fluorescence was subtracted from all images and the mean thresholded intensity was quantified to obtain specific and non-specific binding using Image J.

Row | Molecule | rate of inhibition of the transepithelial voltage (ENaC) | spontaneous BGAR-MCA cleavage on mucosal surfaces (serine proteases) | inhibition of trypsin activity (trypsin) | Kd (αENaC; 30 min incubation, Hill fit) | specific (yfp-αENaC) binding vs non-specific (empty vector) binding (αENaC; binding isotherm)
1 | aprotinin [reference compound] | identical rates | inhibited | ~100% | – | –
2 | Texas red-rSPLUNC1: recombinant SPLUNC1 labeled with Texas red (conjugate, left off: small tags and cut ends) QFGGLPVPLDQTLPLNVNPALPLSPTGLAGSLTNALSNGLLSGGLLGILENLPLLDILKPGGGTSGGLLGGLLGKVTSVIPGLNNIIDIKVTDPQLLELGLVQSPDGHRLYVTIPLGIKLQVNTPLVGASLLRLAVKLDITAEILAVRDKQERIHLVLGDCTHSPGSLQISLLDGLGPLPIQGLLDSLTGILNKVLPELVQGNVCPLVNEVLRGLDITLVHDIVNMLIHGLQFVIKV | – | – | – | 0.055 mg/L | significantly greater and saturable
